This assay deals with T1, Human NK1 Receptor (Homo sapiens, UniProt P25103).
T1 construct: endogenous in cells; host or cells: Human lymphoma IM9 cells (whole cells)
T1 sequence (P25103 whole entry): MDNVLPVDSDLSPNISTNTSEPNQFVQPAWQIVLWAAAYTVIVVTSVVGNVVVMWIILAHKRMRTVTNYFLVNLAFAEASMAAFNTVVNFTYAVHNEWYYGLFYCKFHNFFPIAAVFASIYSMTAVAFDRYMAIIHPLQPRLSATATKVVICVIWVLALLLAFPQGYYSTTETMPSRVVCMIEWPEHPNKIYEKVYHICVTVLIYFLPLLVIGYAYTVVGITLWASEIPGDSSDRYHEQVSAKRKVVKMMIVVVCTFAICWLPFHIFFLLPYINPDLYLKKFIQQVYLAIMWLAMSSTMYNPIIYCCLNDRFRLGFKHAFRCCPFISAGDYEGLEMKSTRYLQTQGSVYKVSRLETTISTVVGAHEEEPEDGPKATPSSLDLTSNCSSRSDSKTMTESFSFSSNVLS
Kind of assay: In Vitro Human NK1 Receptor Binding Assay ([125I]Bolton-Hunter substance P displacement, IM9 cells). Particulars: human NK1 receptor, IM9 cells, [125I]Bolton-Hunter substance P; read-out: IC50 (nM) hNK1. The method in brief:
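Test compounds competed with 0.05-0.1 nM [125I]Bolton-Hunter substance P for binding to intact IM9 cells over 50 min at 21° C, pH 7.4 buffer with MnCl2 and peptidase inhibitors. […] [Sar9, Met(O2)11] substance P gave non-specific binding. Bound counts were measured after filtration and fitted iteratively.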
In general, IC50 refers to the concentration needed to halve the response being measured. In the case of `CC(Cc1c[nH]c2ccccc12)(NCc1cc2ccccc2o1)C(=O)NCc1cccnc1` (stereo not drawn) [compound 24, 2-[(Benzofuran-2-ylmethyl)-amino]-3-(1H-indol-3-yl)-2-methyl-N-pyridin-3-ylmethyl-propionamide], the IC50 came out at 547 nM.

With `CC(Cc1c[nH]c2ccccc12)(NCc1cc2ccccc2o1)C(=O)NCc1ccncc1` (stereo not drawn) [compound 25, 2-[(Benzofuran-2-ylmethyl)-amino]-3-(1H-indol-3-yl)-2-methyl-N-pyridin-4-ylmethyl-propionamide], the IC50 came to 131 nM.

Turning to `CC(Cc1c[nH]c2ccccc12)(NCc1cc2ccccc2o1)C(=O)NC1CCCCC1` (stereo not drawn) [compound 26, 2-[(Benzofuran-2-ylmethyl)-amino]-N-cyclohexyl-3-(1H-indol-3-yl)-2-methyl-propionamide], the IC50 was determined as 1010 nM.

With `CC(Cc1c[nH]c2ccccc12)(NCc1cc2ccccc2o1)C(=O)NCC1CCCCC1` (stereo not drawn) [compound 27, 2-[(Benzofuran-2-ylmethyl)-amino]-N-cyclohexylmethyl-3-(1H-indol-3-yl)-2-methyl-propionamide], the IC50 came to 311 nM.

In the case of `CC(Cc1c[nH]c2ccccc12)(NCc1cc2ccccc2o1)C(=O)NCc1ccccc1` (stereo not drawn) [compound 28, 2-[(Benzofuran-2-ylmethyl)-amino]-N-benzyl-3-(1H-indol-3-yl)-2-methyl-propionamide], the IC50 turned out to be 44 nM.

Regarding `CC(Cc1c[nH]c2ccccc12)(NCc1cc2ccccc2o1)C(=O)NC(CO)c1ccccc1` (stereo not drawn) [compound 29, 2-[(Benzofuran-2-ylmethyl)-amino]-N-(2-hydroxy-1-phenyl-ethyl)-3-(1H-indol-3-yl)-2-methyl-propionamide], the 50% inhibitory concentration (IC50) is 7 nM.

For `CC(NC(=O)C(C)(Cc1c[nH]c2ccccc12)NCc1cc2ccccc2o1)c1ccc(Cl)cc1` (stereo not drawn) [compound 30, 2-[(Benzofuran-2-ylmethyl)-amino]-N-[1-(4-chloro-phenyl)-ethyl]-3-(1H-indol-3-yl)-2-methyl-propionamide], the IC50 worked out at 17 nM.

As to `CC(NC(=O)C(C)(Cc1c[nH]c2ccccc12)NCc1cc2ccccc2o1)c1cccc2ccccc12` (stereo not drawn) [compound 31, 2-[(Benzofuran-2-ylmethyl)amino]-3-(1H-indol-3-yl)-2-methyl-N-(1-naphthalen-1-yl-ethyl)-propionamide], the IC50 was more than 10000 nM.

`CC(NC(=O)C(C)(Cc1c[nH]c2ccccc12)NCc1cc2ccccc2o1)c1cccc2ccccc12` (stereo not drawn) [compound 32, 2-[(Benzofuran-2-ylmethyl)-amino]-3-(1H-indol-3-yl)-2-methyl-N-(1-naphthalen-1-yl-ethyl)-propionamide]: the concentration for half-maximal inhibition (IC50) was more than 10000 nM.

Take `CC(NC(=O)C(C)(Cc1c[nH]c2ccccc12)NCc1cc2ccccc2o1)c1ccc(F)cc1` (stereo not drawn) [compound 33, 2-[(Benzofuran-2-ylmethyl)-amino]-N-[1-(4-fluoro-phenyl)-ethyl]-3-(1H-indol-3-yl)-2-methyl-propionamide]: the IC50 worked out at 9 nM.

`CC(NC(=O)C(C)(Cc1c[nH]c2ccccc12)NCc1cc2ccccc2o1)c1ccc([N+](=O)[O-])cc1` (stereo not drawn) [compound 34, 2-[(Benzofuran-2-ylmethyl)-amino]-3-(1H-indol-3-yl)-2-methyl-N-[1-(4-nitro-phenyl)-ethyl]-propionamide]: the half-maximal inhibitory concentration (IC50) amounted to 14 nM.

As for `COc1ccc(C(C)NC(=O)C(C)(Cc2c[nH]c3ccccc23)NCc2cc3ccccc3o2)cc1` (stereo not drawn) [compound 35, 2-[(Benzofuran-2-ylmethyl)-amino]-3-(1H-indol-3-yl)-N-[1-(4-methoxy-phenyl)-ethyl]-2-methyl-propionamide], the IC50 was 31 nM.

`CC(NC(=O)C(C)(Cc1c[nH]c2ccccc12)NCc1cc2ccccc2o1)c1ccccc1N` (stereo not drawn) [compound 36, N-[1-(2-Amino-phenyl)-ethyl]-2-[(benzofuran-2-ylmethyl)-amino]-3-(1H-indol-3-yl)-2-methyl-propionamide]: the IC50 was found to be 1620 nM.

In the case of `CC(NC(=O)C(C)(Cc1c[nH]c2ccccc12)NCc1cc2ccccc2o1)c1cccc(N)c1` (stereo not drawn) [compound 37, N-[1-(3-Amino-phenyl)-ethyl]-2-[(benzofuran-2-ylmethyl)-amino]-3-(1H-indol-3-yl)-2-methyl-propionamide], the IC50 worked out at 364 nM.

On to `CC(NC(=O)C(C)(Cc1c[nH]c2ccccc12)NCc1cc2ccccc2o1)c1ccc(N)cc1` (stereo not drawn) [compound 38, N-[1-(4-Amino-phenyl)-ethyl]-2-[(benzofuran-2-ylmethyl)-amino]-3-(1H-indol-3-yl)-2-methyl-propionamide], for which the IC50 was determined as 141 nM.

Regarding `CC(NC(=O)C(C)(Cc1c[nH]c2ccccc12)NCc1cc2ccccc2o1)c1ccc(N(C)C)cc1` (stereo not drawn) [compound 39, 2-[(Benzofuran-2-ylmethyl)-amino]-N-[1-(4-dimethylamino-phenyl)-ethyl]-3-(1H-indol-3-yl)-2-methyl-propionamide], the IC50 was found to be 863 nM.

Regarding `CC(NC(=O)C(C)(Cc1c[nH]c2ccccc12)NCc1cc2ccccc2o1)c1cccc(N(C)C)c1` (stereo not drawn) [compound 40, 2-[(Benzofuran-2-ylmethyl)-amino)-N-[1-(3-dimethylamino-phenyl)-ethyl]-3-(1H-indol-3-yl)-2-methyl-propionamide], the IC50 was determined as 1060 nM.

With `CC(NC(=O)C(C)(Cc1c[nH]c2ccccc12)NCc1cc2ccccc2o1)c1ccsc1` (stereo not drawn) [compound 41, 2-[(Benzofuran-2-ylmethyl)-amino]-3-(1H-indol-3-yl)-2-methyl-N-(1-thiophen-3-yl-ethyl)-propionamide], the IC50 was found to be 19 nM.

As to `CC(NC(=O)C(C)(Cc1c[nH]c2ccccc12)NCc1cc2ccccc2o1)c1ccccc1` (stereo not drawn) [compound 42, 2-[(Benzofuran-2-ylmethyl)-amino]-3-(1H-indol-3-yl)-2-methyl-N-(1-phenyl-ethyl)-propionamide], the IC50 was 261 nM.

With `CC(Cc1c[nH]c2ccccc12)(NCc1cc2ccccc2o1)C(=O)NCc1ncc(C(=O)O)c(O)n1` (stereo not drawn) [compound 43, 2-{[2-[(Benzofuran-2-ylmethyl)-amino]-3-(1H-indol-3-yl)-2-methyl-propionylamino]-methyl}-4-hydroxy-pyrimidine-5-carboxylic acid], the IC50 is 3610 nM.

As for `CC(NC(=O)C(C)(Cc1c[nH]c2ccccc12)NCc1cc2ccccc2o1)c1cccnc1` (stereo not drawn) [compound 44, 2-[(Benzofuran-2-ylmethyl)-amino]-3-(1H-indol-3-yl)-2-methyl-N-(1-pyridin-3-yl-ethyl)-propionamide], the IC50 was 151 nM.

Take `CC(Cc1c[nH]c2ccccc12)(NCc1cc2ccccc2o1)C(=O)NCCc1ccccn1` (stereo not drawn) [compound 45, 2-[(Benzofuran-2-ylmethyl)-amino]-3-(1H-indol-3-yl)-2-methyl-N-(2-pyridin-2-yl-ethyl)-propionamide]: the IC50 is 913 nM.

Take `CC(Cc1c[nH]c2ccccc12)(NCc1cc2ccccc2o1)C(=O)NCc1ccc(Cl)cc1Cl` (stereo not drawn) [compound 46, 2-[(Benzofuran-2-ylmethyl)-amino]-N-(2,4-dichloro-benzyl)-3-(1H-indol-3-yl)-2-methyl-propionamide]: the IC50 worked out at 1560 nM.

`CC(Cc1c[nH]c2ccccc12)(NCc1cc2ccccc2o1)C(=O)NCCc1ccc(S(N)(=O)=O)cc1` (stereo not drawn) [compound 47, 2-[(Benzofuran-2-ylmethyl)-amino]-3-(1H-indol-3-yl)-2-methyl-N-[2-(4-sulfamoyl-phenyl)-ethyl]-propionamide]: the half-inhibitory concentration (IC50) is 7620 nM.

As to `CC(Cc1c[nH]c2ccccc12)(NCc1cc2ccccc2o1)C(=O)NCc1c(N)cccc1F` (stereo not drawn) [compound 48, N-(2-Amino-6-fluoro-benzyl)-2-[(benzofuran-2-ylmethyl)-amino]-3-(1H-indol-3-yl)-2-methyl-propionamide], the IC50 was 6420 nM.

Consider `CC(Cc1c[nH]c2ccccc12)(NCc1cc2ccccc2o1)C(=O)NCC1CCCCC1O` (stereo not drawn) [compound 49, 2-[(Benzofuran-2-ylmethyl)-amino]-N (2-hydroxy-cyclohexylmethyl)-3-(1H-indol-3-yl)-2-methyl-propionamide], for which the IC50 worked out at 1550 nM.

As for `CC(Cc1c[nH]c2ccccc12)(NCc1cc2ccccc2o1)C(=O)NCC(O)c1ccccc1` (stereo not drawn) [compound 50, 2-[(Benzofuran-2-ylmethyl)-amino]-N-(2-hydroxy-2-phenyl-ethyl)-3-(1H-indol-3-yl)-2-methyl-propionamide], the IC50 was determined as 1330 nM.

Take `CC(Cc1c[nH]c2ccccc12)(NCc1cc2ccccc2o1)C(=O)NCc1cc(C(F)(F)F)cc(C(F)(F)F)c1` (stereo not drawn) [compound 51, 2-[(Benzofuran-2-ylmethyl)-amino]-N-(3,5-bis-trifluoromethyl-benzyl)-3-(1H-indol-3-yl)-2-methyl-propionamide]: the concentration for half-maximal inhibition (IC50) is 179 nM.

For `CN1CCCC1CCNC(=O)C(C)(Cc1c[nH]c2ccccc12)NCc1cc2ccccc2o1` (stereo not drawn) [compound 52, 2-[(Benzofuran-2-ylmethyl)-amino]-3-(1H-indol-3-yl)-2-methyl-N-[2-(1-methyl-pyrrolidin-2-yl)-ethyl]-propionamide], the IC50 is more than 10000 nM.

In the case of `CC(Cc1c[nH]c2ccccc12)(NCc1cc2ccccc2o1)C(=O)NCCc1ccccc1` (stereo not drawn) [compound 53, 2-[(Benzofuran-2-ylmethyl)-amino]-3-(1H-indol-3-yl)-2-methyl-N-phenethyl-propionamide], the IC50 came to 262 nM.

For the compound `Cc1cccc(CNC(=O)C(C)(Cc2c[nH]c3ccccc23)NCc2cc3ccccc3o2)c1C` (stereo not drawn) [compound 54, 2-[(Benzofuran-2-ylmethyl)-amino]-N-(2,3-dimethyl-benzyl)-3-(1H-indol-3-yl)-2-methyl-propionamide], the IC50 was determined as 834 nM.

`COc1cccc(CNC(=O)C(C)(Cc2c[nH]c3ccccc23)NCc2cc3ccccc3o2)c1` (stereo not drawn) [compound 55, 2-[(Benzofuran-2-ylmethyl)-amino]-3-(1H-indol-3-yl)-N-(3-methoxy-benzyl)-2-methyl-propionamide]: the IC50 turned out to be 643 nM.

For the compound `CC(Cc1c[nH]c2ccccc12)(NCc1cc2ccccc2o1)C(=O)NCCc1ccc(N)cc1` (stereo not drawn) [compound 56, N-[2-(4-Amino-phenyl)-ethyl]-2-[(benzofuran-2-ylmethyl)-amino]-3-(1H-indol-3-yl)-2-methyl-propionamide], the 50% inhibitory concentration (IC50) was determined as 3230 nM.

These data come from patent publication US6472418B1, “Non-peptide NK1 receptors antagonists” (Warner-Lambert Company, priority 1998, dated 2002).
